Test results reported in US20150141580A1, “OPTIMIZED DRUG CONJUGATES” (SynDevRx, Inc., priority 2010, published 2015).

Assay: Pharmacokinetics of polymer conjugate, plasma SDX-7539 by LC-MS/MS
Assay type: in vivo, Sprague-Dawley rats
Details: after SDX-7539 30 mg/kg or SDX-7320 200 mg/kg IV, rat
Experimental: FIG. 6 is a graph showing the plasma concentration of the active metabolite, SDX-7539, as a function of time in Sprague-Dawley rats, to which either the polymer conjugate SDX-7320 (single bolus, intravenous injection, 200 mg/kg) or the small molecule SDX-7539 (single bolus, intravenous injection, 30 mg/kg) has been administered.
The polymer conjugate, SDX-7320, or the in vivo release product, SDX-7539 were administered to Sprague-Dawley rats (N=3). Blood was collected over 48 hours after dosing to determine the plasma concentration of SDX-7539 by LC-MS/MS. The LLOQ for SDX-7539 was 2.5 nM. The terminal elimination half-life for SDX-7539 was estimated by fitting a linear regression to the In[SDX-7539] versus time data. […] Cmax for the polymer is about 2% of the value for the small molecule.

For `CO[C@@H]1[C@H](OC(=O)NC2CCC(N)CC2)CC[C@]2(CO2)[C@H]1[C@@]1(C)O[C@@H]1CC=C(C)C` (stereo partly shown) [SDX-7539], the “AUC for SDX-7539” value was “comparable”.
